Assays:
Assay type in all cases: biochemical
[1] = target: GSK3b (Homo sapiens, UniProt P49841); experiment: Kinase assay (radioactive phosphate incorporation), GSK-3b; conditions: read-out: Kinase Inhibition pIC50 GSK-3b (converted)
How it was run: (§1)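 Recombinant kinases (2-4 μg) with polypeptide substrates in pH 7.4 MOPS/β-glycerophosphate buffer. Reactions started with 15 mM MgCl2 + 100 μM ATP containing [γ-32P]-ATP and incubated at 30° C. Filter-bound incorporated radioactivity counted by scintillation; compounds diluted from DMSO stocks into 10% DMSO buffer.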

[2] = target: CDK2-cycline E (Homo sapiens, UniProt P24941); experiment: Kinase assay (radioactive phosphate incorporation), CDK2-cyclin E; conditions: read-out: Kinase Inhibition pIC50 CDK2-cycline E (converted)
How it was run: as §1

[3] = target: CDK9/cyclin T1 (Homo sapiens, UniProt P50750); experiment: CDK 9 assay (CTD peptide substrate); conditions: read-out: Kinase Inhibition pIC50 CDK9-cyclin T1 (converted)
How it was run: (§2)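 Radiometric assay: recombinant human CDK9/cyclin T1 or CDK7/cyclin H with biotinylated CTD heptapeptide-repeat substrate, 100 μM ATP with [γ-32P]ATP, 15 mM MgCl2, MOPS pH 7.2, 45 min at 30 °C. Avidin-captured substrate filtered onto P81; 32P incorporation counted by scintillation.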

[4] = target: CDK7/cyclin H (Homo sapiens, UniProt P50613); experiment: CDK 7 assay (CTD peptide substrate); conditions: read-out: Kinase Inhibition pIC50 CDK7-cyclin H (converted)
How it was run: as §2

[5] = target: CDK4-cyclin D1 (Homo sapiens, UniProt P11802); experiment: Kinase assay (radioactive phosphate incorporation), CDK4-cyclin D1; conditions: read-out: Kinase Inhibition pIC50 CDK4-cyclin D1 (converted)
How it was run: as §1

[6] = target: T1, Aurora A kinase (Homo sapiens, UniProt O14965); experiment: Aurora-A (human) kinase assay (Kemptide substrate); conditions: pIC50 is -log(IC50, M); 15 μM ATP; read-out: Kinase Inhibition pIC50 Aurora A kinase (converted)
T1 construct: purchased
T1 sequence (O14965 1-403): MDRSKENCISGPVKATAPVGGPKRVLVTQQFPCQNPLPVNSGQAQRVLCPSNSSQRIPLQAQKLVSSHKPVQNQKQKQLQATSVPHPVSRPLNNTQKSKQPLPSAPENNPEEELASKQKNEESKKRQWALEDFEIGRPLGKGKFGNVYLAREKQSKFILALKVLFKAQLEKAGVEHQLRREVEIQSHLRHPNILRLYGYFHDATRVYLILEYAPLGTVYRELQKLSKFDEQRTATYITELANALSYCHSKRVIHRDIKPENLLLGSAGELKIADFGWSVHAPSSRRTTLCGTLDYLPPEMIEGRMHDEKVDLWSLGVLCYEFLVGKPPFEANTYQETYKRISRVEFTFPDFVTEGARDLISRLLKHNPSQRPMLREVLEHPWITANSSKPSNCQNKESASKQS
How it was run: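 Radiometric filter-binding assay: commercial aurora-A kinase (5-10 ng) with 200 μM Kemptide in MOPS/EDTA pH 7.0, started with 10 mM Mg acetate and 15 μM ATP plus [γ-33P]-ATP. Incubated 40 min at room temperature, stopped with phosphoric acid, incorporated 33P counted by scintillation.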

[7] = target: CDK1-cyclin B (Homo sapiens, UniProt P06493); experiment: Kinase assay (radioactive phosphate incorporation), CDK1-cyclin B; conditions: read-out: Kinase Inhibition pIC50 CDK1-cyclin B (converted)
How it was run: as §1

[8] = target: CDK2-cyclin A (Homo sapiens, UniProt P24941); experiment: Kinase assay (radioactive phosphate incorporation), CDK2-cyclin A; conditions: read-out: Kinase Inhibition pIC50 CDK2-cyclin A (converted)
How it was run: as §1

[9] = target: T2, Flt3 (FMS-like tyrosine kinase-3) (Homo sapiens, UniProt P36888); experiment: Kinase assay (radioactive phosphate incorporation), Flt3; conditions: pIC50 is -log(IC50, M), read-out: Kinase Inhibition pIC50 Flt3 (converted)
T2 sequence (P36888 27-993): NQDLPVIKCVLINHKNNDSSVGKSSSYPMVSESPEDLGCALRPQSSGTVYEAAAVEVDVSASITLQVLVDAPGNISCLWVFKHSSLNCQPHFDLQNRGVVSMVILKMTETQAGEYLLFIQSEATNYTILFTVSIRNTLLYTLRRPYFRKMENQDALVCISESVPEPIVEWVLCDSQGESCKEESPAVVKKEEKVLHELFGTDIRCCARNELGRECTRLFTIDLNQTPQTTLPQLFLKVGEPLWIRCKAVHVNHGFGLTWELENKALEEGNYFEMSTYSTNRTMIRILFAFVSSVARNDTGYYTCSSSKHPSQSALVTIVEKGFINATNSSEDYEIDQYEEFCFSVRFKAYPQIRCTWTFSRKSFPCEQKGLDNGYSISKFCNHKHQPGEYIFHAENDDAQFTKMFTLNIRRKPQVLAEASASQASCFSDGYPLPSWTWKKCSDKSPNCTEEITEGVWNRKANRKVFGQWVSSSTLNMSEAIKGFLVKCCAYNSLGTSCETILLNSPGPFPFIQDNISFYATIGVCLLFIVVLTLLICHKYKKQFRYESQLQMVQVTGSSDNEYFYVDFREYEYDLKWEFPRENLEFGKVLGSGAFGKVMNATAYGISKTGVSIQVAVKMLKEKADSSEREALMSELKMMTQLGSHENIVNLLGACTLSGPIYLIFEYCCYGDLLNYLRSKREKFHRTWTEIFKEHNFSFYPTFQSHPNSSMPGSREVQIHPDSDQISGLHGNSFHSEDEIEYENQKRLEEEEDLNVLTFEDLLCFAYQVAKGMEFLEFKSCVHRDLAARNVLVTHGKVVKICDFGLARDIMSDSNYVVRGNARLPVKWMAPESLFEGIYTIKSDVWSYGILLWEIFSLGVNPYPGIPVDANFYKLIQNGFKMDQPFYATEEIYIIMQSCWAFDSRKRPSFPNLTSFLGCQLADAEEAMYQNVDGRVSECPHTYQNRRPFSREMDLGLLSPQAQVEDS
How it was run: as §1

Chain of CDK9/cyclin T1 (P50750 whole entry): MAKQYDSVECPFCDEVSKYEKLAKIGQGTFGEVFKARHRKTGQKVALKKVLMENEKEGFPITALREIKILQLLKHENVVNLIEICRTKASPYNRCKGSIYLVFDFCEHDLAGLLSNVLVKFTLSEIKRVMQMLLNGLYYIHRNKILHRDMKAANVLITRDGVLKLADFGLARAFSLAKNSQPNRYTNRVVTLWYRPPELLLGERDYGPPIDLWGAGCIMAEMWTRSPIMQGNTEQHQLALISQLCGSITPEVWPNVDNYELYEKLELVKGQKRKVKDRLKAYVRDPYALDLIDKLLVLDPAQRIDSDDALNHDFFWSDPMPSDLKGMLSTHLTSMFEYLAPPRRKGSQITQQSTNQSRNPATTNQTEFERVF
Chain of CDK9/cyclin T1 (O60563 whole entry partner): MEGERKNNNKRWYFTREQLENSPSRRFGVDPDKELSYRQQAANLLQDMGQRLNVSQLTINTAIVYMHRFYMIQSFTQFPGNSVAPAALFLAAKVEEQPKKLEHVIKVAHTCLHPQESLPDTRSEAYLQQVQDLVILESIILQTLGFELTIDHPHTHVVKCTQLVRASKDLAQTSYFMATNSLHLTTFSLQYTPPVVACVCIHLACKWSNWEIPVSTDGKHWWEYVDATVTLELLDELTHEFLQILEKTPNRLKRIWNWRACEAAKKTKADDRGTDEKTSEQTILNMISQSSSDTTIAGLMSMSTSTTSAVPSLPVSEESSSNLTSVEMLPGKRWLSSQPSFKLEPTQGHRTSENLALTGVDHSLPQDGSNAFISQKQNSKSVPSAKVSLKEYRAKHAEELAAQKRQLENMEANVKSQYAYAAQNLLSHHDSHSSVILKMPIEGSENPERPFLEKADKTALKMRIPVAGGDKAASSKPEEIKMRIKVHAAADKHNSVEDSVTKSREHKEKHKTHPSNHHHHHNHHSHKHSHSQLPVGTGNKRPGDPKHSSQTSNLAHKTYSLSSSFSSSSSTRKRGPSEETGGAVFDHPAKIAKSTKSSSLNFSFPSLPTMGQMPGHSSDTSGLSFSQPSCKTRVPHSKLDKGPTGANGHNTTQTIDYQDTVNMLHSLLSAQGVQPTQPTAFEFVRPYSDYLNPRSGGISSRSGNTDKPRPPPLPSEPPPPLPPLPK
Chain of CDK1-cyclin B (P06493 whole entry): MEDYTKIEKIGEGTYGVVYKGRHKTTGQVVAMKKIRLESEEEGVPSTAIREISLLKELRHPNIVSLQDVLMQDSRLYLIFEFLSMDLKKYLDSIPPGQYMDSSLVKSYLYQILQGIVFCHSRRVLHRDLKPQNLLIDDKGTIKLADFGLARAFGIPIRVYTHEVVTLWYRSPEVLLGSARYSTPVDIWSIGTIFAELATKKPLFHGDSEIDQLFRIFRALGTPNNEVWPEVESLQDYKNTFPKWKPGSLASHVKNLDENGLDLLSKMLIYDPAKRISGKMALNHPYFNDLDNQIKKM
Chain of CDK1-cyclin B (P14635 whole entry partner): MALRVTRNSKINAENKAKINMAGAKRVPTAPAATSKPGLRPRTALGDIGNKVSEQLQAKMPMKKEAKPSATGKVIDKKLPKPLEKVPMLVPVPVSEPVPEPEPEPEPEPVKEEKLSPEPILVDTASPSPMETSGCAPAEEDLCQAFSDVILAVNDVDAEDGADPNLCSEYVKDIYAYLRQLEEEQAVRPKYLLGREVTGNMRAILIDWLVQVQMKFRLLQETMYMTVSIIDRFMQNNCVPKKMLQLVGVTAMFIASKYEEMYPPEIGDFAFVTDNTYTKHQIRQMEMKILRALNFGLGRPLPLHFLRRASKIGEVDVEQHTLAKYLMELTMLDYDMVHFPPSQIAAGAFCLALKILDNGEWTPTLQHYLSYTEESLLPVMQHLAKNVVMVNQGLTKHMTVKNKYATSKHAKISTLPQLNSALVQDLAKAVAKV
Chain of CDK4-cyclin D1 (P11802 whole entry): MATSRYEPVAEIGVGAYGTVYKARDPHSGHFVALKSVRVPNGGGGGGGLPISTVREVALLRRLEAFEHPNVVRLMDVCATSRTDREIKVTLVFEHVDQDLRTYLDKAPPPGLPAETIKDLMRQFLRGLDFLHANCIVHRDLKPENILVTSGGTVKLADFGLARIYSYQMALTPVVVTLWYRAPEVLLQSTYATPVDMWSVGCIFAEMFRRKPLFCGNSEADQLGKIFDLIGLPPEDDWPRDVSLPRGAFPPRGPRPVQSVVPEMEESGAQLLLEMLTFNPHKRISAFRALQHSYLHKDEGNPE
Chain of CDK4-cyclin D1 (P24385 whole entry partner): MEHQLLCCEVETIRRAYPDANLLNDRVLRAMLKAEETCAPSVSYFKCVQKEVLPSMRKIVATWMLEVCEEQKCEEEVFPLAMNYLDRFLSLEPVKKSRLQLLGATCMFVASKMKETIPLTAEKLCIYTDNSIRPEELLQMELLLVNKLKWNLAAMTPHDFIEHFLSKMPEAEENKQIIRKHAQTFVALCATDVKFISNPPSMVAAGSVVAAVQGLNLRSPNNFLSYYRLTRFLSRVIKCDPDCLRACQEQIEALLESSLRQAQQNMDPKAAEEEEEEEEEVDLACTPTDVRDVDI
Chain of GSK3b (P49841 whole entry, species assumed): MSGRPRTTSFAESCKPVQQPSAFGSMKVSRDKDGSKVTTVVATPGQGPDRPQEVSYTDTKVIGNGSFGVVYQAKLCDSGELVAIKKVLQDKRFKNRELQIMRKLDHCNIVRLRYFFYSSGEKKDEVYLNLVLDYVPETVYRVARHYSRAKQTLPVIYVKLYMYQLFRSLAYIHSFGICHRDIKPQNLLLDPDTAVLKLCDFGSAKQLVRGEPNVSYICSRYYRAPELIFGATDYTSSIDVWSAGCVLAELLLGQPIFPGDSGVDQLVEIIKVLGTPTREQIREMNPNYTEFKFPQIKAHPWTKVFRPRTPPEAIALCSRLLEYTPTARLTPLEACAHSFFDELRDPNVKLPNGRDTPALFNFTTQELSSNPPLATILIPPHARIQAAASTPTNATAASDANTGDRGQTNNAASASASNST
Chain of CDK7/cyclin H (P50613 whole entry): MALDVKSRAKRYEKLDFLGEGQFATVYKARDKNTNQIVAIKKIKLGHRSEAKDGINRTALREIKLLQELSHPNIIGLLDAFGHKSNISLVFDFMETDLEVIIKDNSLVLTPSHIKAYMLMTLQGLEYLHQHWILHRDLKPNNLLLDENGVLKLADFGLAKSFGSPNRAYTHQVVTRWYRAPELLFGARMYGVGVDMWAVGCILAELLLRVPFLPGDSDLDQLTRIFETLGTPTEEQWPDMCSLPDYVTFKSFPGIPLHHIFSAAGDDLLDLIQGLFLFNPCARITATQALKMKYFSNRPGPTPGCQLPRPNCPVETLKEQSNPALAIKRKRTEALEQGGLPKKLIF
Chain of CDK7/cyclin H (P51946 whole entry partner): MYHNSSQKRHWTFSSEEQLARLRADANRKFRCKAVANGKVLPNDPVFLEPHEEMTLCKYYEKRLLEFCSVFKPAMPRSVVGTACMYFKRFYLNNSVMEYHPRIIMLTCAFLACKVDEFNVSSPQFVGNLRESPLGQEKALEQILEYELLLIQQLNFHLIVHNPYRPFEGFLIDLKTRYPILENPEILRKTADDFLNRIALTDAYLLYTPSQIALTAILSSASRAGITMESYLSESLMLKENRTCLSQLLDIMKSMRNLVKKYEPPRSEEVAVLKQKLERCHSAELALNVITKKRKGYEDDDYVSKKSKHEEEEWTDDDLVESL

Compound `CC(=O)NCc1ccc(Nc2nccc(-c3sc(C)nc3C)n2)cc1` [Compound 15, N-{4-[4-(2,4-Dimethyl-thiazol-5-yl)-pyrimidin-2-ylamino]-benzyl}-acetamide] has an IC50 [1] of 1000 nM, an IC50 [2] of 200 nM and an IC50 [3] of 794 nM. The IC50 [4] was 1580 nM, the IC50 [5] was 631 nM and the IC50 [6] was 39.8 nM. It also gave an IC50 [7] of 501 nM, an IC50 [8] of 1000 nM and an IC50 [9] of 501 nM.
Compound `CCNc1nc(C)c(-c2ccnc(Nc3cccc(S(N)(=O)=O)c3)n2)s1` [Compound 18, 3-[4-(2-Ethylamino-4-methyl-thiazol-5-yl)-pyrimidin-2-ylamino]-benzenesulfonamide] has an IC50 [1] of 2510 nM, an IC50 [2] of 794 nM and an IC50 [3] of 15.8 nM. For the same compound, the IC50 [4] was 126 nM, the IC50 [5] was 251 nM and the IC50 [7] was 2000 nM. It also gave an IC50 [8] of 1580 nM and an IC50 [9] of 158 nM.
`CNS(=O)(=O)c1cccc(Nc2nccc(-c3sc(N)nc3C)n2)c1` [Compound 26, 3-[4-(2-Amino-4-methyl-thiazol-5-yl)-pyrimidin-2-ylamino]-N-methyl-benzenesulfonamide] gave an IC50 [1] of 316 nM, an IC50 [2] of 251 nM and an IC50 [3] of 126 nM. The IC50 [4] was 794 nM, the IC50 [5] was 2510 nM and the IC50 [6] was 79.4 nM. It also gave an IC50 [7] of 1260 nM, an IC50 [8] of 1000 nM and an IC50 [9] of 1000 nM.
`Cc1nc(N)sc1-c1ccnc(Nc2cccc(CNS(=O)(=O)C(F)(F)F)c2)n1` [Compound 12, N-{3-[4-(2-Amino-4-methyl-thiazol-5-yl)-pyrimidin-2-ylamino]-benzyl}-C,C,C-trifluoro-methanesulfonamide] was tested, and the IC50 [1] was 2000 nM, the IC50 [2] was 63.1 nM and the IC50 [3] was 100 nM. It also gave an IC50 [4] of 200 nM, an IC50 [5] of 631 nM and an IC50 [6] of 251 nM. It also gave an IC50 [7] of 631 nM, an IC50 [8] of 501 nM and an IC50 [9] of 794 nM.
With `CNc1nc(C)c(-c2ccnc(Nc3cccc(S(=O)(=O)NC)c3)n2)s1` [Compound 21, N-Methyl-3-[4-(4-methyl-2-methylamino-thiazol-5-yl)-pyrimidin-2-ylamino]-benzenesulfonamide] the IC50 [1] was 251 nM, the IC50 [2] was 63.1 nM and the IC50 [3] was 12.6 nM. It also gave an IC50 [4] of 251 nM, an IC50 [5] of 39.8 nM and an IC50 [6] of 79.4 nM. For the same compound, the IC50 [7] was 1000 nM, the IC50 [8] was 794 nM and the IC50 [9] was 158 nM.
`CC(=O)NCc1ccc(Nc2nccc(-c3sc(N)nc3C)n2)cc1` [Compound 16, N-{4-[4-(2-Amino-4-methyl-thiazol-5-yl)-pyrimidin-2-ylamino]-benzyl}-acetamide] was tested, and the IC50 [1] was 1000 nM, the IC50 [2] was 158 nM and the IC50 [3] was 251 nM. It also gave an IC50 [4] of 2000 nM, an IC50 [5] of 501 nM and an IC50 [6] of 79.4 nM. It also gave an IC50 [7] of 1000 nM, an IC50 [8] of 1260 nM and an IC50 [9] of 158 nM.
Compound `CNc1nc(C)c(-c2ccnc(Nc3ccc(S(C)(=O)=O)cc3)n2)s1` [Compound 20, (4-Methanesulfonyl-phenyl)-[4-(4-methyl-2-methylamino-thiazol-5-yl)-pyrimidin-2-yl]-amine] has an IC50 [1] of 316 nM, an IC50 [2] of 2.51 nM and an IC50 [3] of 63.1 nM. For the same compound, the IC50 [4] was 3980 nM, the IC50 [5] was 2510 nM and the IC50 [7] was 158 nM. The IC50 [8] was 15.8 nM and the IC50 [9] was 316 nM.
In the case of `Cc1nc(N)sc1-c1ccnc(Nc2ccc(S(=O)(=O)NCCO)cc2)n1` [Compound 68, 4-[4-(2-Amino-4-methyl-thiazol-5-yl)-pyrimidin-2-ylamino]-N-(2-hydroxy-ethyl)-benzenesulfonamide], the IC50 [1] is reported as 1260 nM, the IC50 [2] is reported as 10 nM and the IC50 [3] is reported as 200 nM. The IC50 [4] was 2000 nM, the IC50 [5] was 1580 nM and the IC50 [6] was 63.1 nM. The IC50 [7] was 20 nM, the IC50 [8] was 20 nM and the IC50 [9] was 200 nM.
Compound `Cc1nc(N)sc1-c1ccnc(Nc2cccc(S(=O)(=O)NCCO)c2)n1` [Compound 77, 3-[4-(2-Amino-4-methyl-thiazol-5-yl)-pyrimidin-2-ylamino]-N-(2-hydroxy-ethyl)-benzenesulfonamide] has an IC50 [1] of 316 nM, an IC50 [2] of 126 nM and an IC50 [3] of 25.1 nM. It also gave an IC50 [4] of 398 nM, an IC50 [5] of 126 nM and an IC50 [6] of 100 nM. The IC50 [7] was 1000 nM, the IC50 [8] was 1000 nM and the IC50 [9] was 158 nM.
`CCNc1nc(C)c(-c2ccnc(Nc3ccc(S(N)(=O)=O)cc3)n2)s1` [Compound 35, 4-[4-(2-Ethylamino-4-methyl-thiazol-5-yl)-pyrimidin-2-ylamino]-benzenesulfonamide] gave an IC50 [1] of 631 nM, an IC50 [2] of 3.98 nM and an IC50 [3] of 10 nM. It also gave an IC50 [4] of 79.4 nM, an IC50 [5] of 20 nM and an IC50 [6] of 63.1 nM. For the same compound, the IC50 [7] was 31.6 nM, the IC50 [8] was 6.31 nM and the IC50 [9] was 63.1 nM.
Work on `CCNc1nc(C)c(-c2ccnc(Nc3cccc(S(=O)(=O)NCCOC)c3)n2)s1` [Compound 53, 3-[4-(2-Ethylamino-4-methyl-thiazol-5-yl)-pyrimidin-2-ylamino]-N-(2-methoxy-ethyl)-benzenesulfonamide] yielded an IC50 [1] of 501 nM, an IC50 [2] of 398 nM and an IC50 [3] of 100 nM. It also gave an IC50 [4] of 158 nM, an IC50 [5] of 158 nM and an IC50 [6] of 158 nM. It also gave an IC50 [7] of 2000 nM, an IC50 [8] of 2000 nM and an IC50 [9] of 200 nM.
`CNc1nc(C)c(-c2ccnc(Nc3ccc(CNC(C)=O)cc3)n2)s1` [Compound 14, N-{4-[4-(4-Methyl-2-methylamino-thiazol-5-yl)-pyrimidin-2-ylamino]-benzyl}-acetamide] gave an IC50 [1] of 631 nM, an IC50 [2] of 39.8 nM and an IC50 [3] of 79.4 nM. For the same compound, the IC50 [4] was 794 nM, the IC50 [5] was 126 nM and the IC50 [7] was 398 nM. It also gave an IC50 [8] of 631 nM and an IC50 [9] of 79.4 nM.
In the case of `CNc1nc(C)c(-c2ccnc(Nc3ccc(S(=O)(=O)NCCO)cc3)n2)s1` [Compound 67, N-(2-Hydroxy-ethyl)-4-[4-(4-methyl-2-methylamino-thiazol-5-yl)-pyrimidin-2-ylamino]-benzenesulfonamide], the IC50 [1] is reported as 1260 nM, the IC50 [2] is reported as 6.31 nM and the IC50 [4] is reported as 3980 nM. For the same compound, the IC50 [5] was 501 nM, the IC50 [6] was 316 nM and the IC50 [7] was 50.1 nM. For the same compound, the IC50 [8] was 15.8 nM and the IC50 [9] was 316 nM.
For `CCNc1nc(C)c(-c2ccnc(Nc3ccc(S(=O)(=O)NCCO)cc3)n2)s1` [Compound 65, 4-[4-(2-Ethylamino-4-methyl-thiazol-5-yl)-pyrimidin-2-ylamino]-N-(2-hydroxy-ethyl)-benzenesulfonamide], the IC50 [1] was 316 nM, the IC50 [2] was 15.8 nM and the IC50 [4] was 200 nM. The IC50 [5] was 12.6 nM, the IC50 [6] was 251 nM and the IC50 [7] was 50.1 nM. For the same compound, the IC50 [8] was 20 nM and the IC50 [9] was 200 nM.

Reference: patent publication US20090137572A1, “2-substituted-4-heteroaryl-pyrimidines useful for the treatment of proliferative disorders” (priority 2004, published 2009)
